Reference: patent publication US20170007615A1, “Antibacterial Compounds” (priority 2014, published 2017)
In brackets after ≈: the same amount, converted by molar mass. Read-outs that look alike come from different tables or passages of the source.

Key:
[1] = tested on: A. baumannii (ATCC 19606); conditions: Table 4
E. coli (ATCC 25922) [2] = tested on: E. coli (ATCC 25922)
E. coli (ATCC 25922) [3] = test: microbe, parasite or virus in culture; conditions: Escherichia coli
[4] = tested on: E. cloaceae drug resistant clinical isolates; test: Antibacterial activity (MIC) against drug resistant clinical isolates, alone and with PMBN; type: cell-based; conditions: for MIC: read-out: MIC Compound alone
[5] = tested on: H. influenzae (ATCC 49247); test: Antibacterial activity (MIC), Gram-negative type strain; type: cell-based, Haemophilus influenzae; conditions: Haemophilus influenzae, ATCC49247; Table 13
[6] = tested on: N. gonorrheae (ATCC 49226); test: as above; type: cell-based, Neisseria gonorrhoeae; conditions: Neisseria gonorrhoeae, ATCC49226; Table 13
[7] = tested on: P. aeruginosa (ATCC 27853); test: microbe, parasite or virus in culture; conditions: Pseudomonas aeruginosa, ATCC27853, read-out: MIC Compound alone
E. faecalis (ATCC 29212) = test: Antibacterial activity (MIC), Gram-positive type strain; type: cell-based, Enteroccocus faecalis; conditions: Enterococcus faecalis, ATCC29212; Table 13
S. aureus (ATCC 29213) = test: as above; type: cell-based, Staphylococcus aureus; conditions: Staphylococcus aureus, ATCC29213; Table 13
[8] = tested on: P. aeruginosa (ATCC 27853); conditions: Table 5
[9] = tested on: P. aeruginosa drug resistant clinical isolates; test: Antibacterial activity (MIC) against drug resistant clinical isolates, alone and with PMBN; type: cell-based; conditions: for MIC: Pseudomonas aeruginosa, read-out: MIC Compound alone
E. cloaceae (ATCC 13047) = test: microbe, parasite or virus in culture; conditions: Enterobacter cloacae, ATCC13047, read-out: MIC Compound alone
[10] = tested on: A. baumannii (ATCC 19606); test: microbe, parasite or virus in culture; conditions: Acinetobacter baumannii, ATCC19606, read-out: MIC Compound alone
[11] = tested on: E. coli drug resistant clinical isolates; test: Antibacterial activity (MIC) against drug resistant clinical isolates, alone and with PMBN; type: cell-based

CCNC(=O)Nc1nc2cc(-c3cnc(NS(=O)(=O)C(C)(C)C)nc3)cc(-c3ccc(C)cn3)c2s1 [Compound A-13, 1-[5-[2-(tert-Butylsulfonylamino)pyrimidin-5-yl]-7-(5-methyl-2-pyridyl)-1,3-benzothiazol-2-yl]-3-ethyl-urea]
MIC of Compound (μg/ml) in the presence of PMBN (128 μg/ml) [1]: 0.03 µg/mL
MIC of Compound (μg/ml) in the presence of PMBN (128 μg/ml) (E. coli (ATCC 25922) [2]; Table 1, (b) No effect): 0.008 µg/mL
MIC of Compound (μg/ml) in the presence of Colistin (1 μg/ml) (E. coli (ATCC 25922) [2]; Table 2, colistin sub-inhibitory): 0.25 µg/mL
MIC of Compound (μg/ml) in the presence of PMB (0.5 μg/ml) (E. coli (ATCC 25922) [2]; Table 3, PMB sub-inhibitory): 0.12 µg/mL
MIC (E. coli (ATCC 25922) [3]; ATCC25922, read-out: MIC Compound alone, Table 1): 1 µg/mL (≈ 1.9 µM)
MIC (E. coli (ATCC 25922) [3]; ATCC25922, read-out: MIC Compound alone, Table 2): 1 µg/mL (≈ 1.9 µM)
MIC (E. coli (ATCC 25922) [3]; ATCC25922, read-out: MIC Compound alone, Table 3): 1 µg/mL (≈ 1.9 µM)
MIC of Compound (μg/ml) in the presence of PMBN (128 μg/ml) ([4]; E. cloaceae (MMX 6087)): 0.25 µg/mL
MIC ([4]; E. cloaceae (MMX 6087)): > 64 µg/mL
MIC of Compound (μg/ml) in the presence of PMBN (128 μg/ml) ([4]; E. cloaceae (MMX 6093)): 0.12 µg/mL
MIC ([4]; E. cloaceae (MMX 6093)): 8 µg/mL (≈ 15.2 µM)
MIC of Compound (μg/ml) in the presence of PMBN (128 μg/ml) ([4]; E. cloaceae (MMX 6095)): 1 µg/mL
MIC ([4]; E. cloaceae (MMX 6095)): > 64 µg/mL
MIC of Compound (μg/ml) in the presence of PMBN (128 μg/ml) ([4]; E. cloaceae (MMX 6304)): 0.25 µg/mL
MIC ([4]; E. cloaceae (MMX 6304)): > 16 µg/mL
MIC [5]: 0.015 µg/mL (≈ 0.0285 µM)
MIC [6]: ≤ 0.008 µg/mL
MIC [7]: 4 µg/mL (≈ 7.61 µM)
MIC (E. faecalis (ATCC 29212)): ≤ 0.008 µg/mL
MIC (S. aureus (ATCC 29213)): ≤ 0.008 µg/mL
MIC of Compound (μg/ml) in the presence of PMBN (128 μg/ml) [8]: <=0.008 μg/ml
MIC of Compound (μg/ml) in the presence of PMBN (128 μg/ml) ([9]; P. aeruginosa (MMX3007)): 0.03 µg/mL
MIC of Compound (μg/ml) in the presence of PMBN (128 μg/ml) ([9]; P. aeruginosa (MMX3022)): 0.03 µg/mL
MIC of Compound (μg/ml) in the presence of PMBN (128 μg/ml) ([9]; P. aeruginosa (MMX3025)): 0.03 µg/mL
MIC of Compound (μg/ml) in the presence of PMBN (128 μg/ml) ([9]; P. aeruginosa (MMX3026)): ≦0.008 μg/ml
MIC of Compound (μg/ml) in the presence of PMBN (128 μg/ml) ([9]; P. aeruginosa (MMX4700)): 0.12 µg/mL
MIC of Compound (μg/ml) in the presence of PMBN (128 μg/ml) ([9]; P. aeruginosa (NCTC13437)): 0.016 µg/mL
MIC ([9]; NCTC13437, P. aeruginosa (NCTC13437)): 16 µg/mL (≈ 30.4 µM)
MIC ([9]; P. aeruginosa (MMX3007)): > 16 µg/mL
MIC ([9]; P. aeruginosa (MMX3022)): 8 µg/mL (≈ 15.2 µM)
MIC ([9]; P. aeruginosa (MMX3025)): > 16 µg/mL
MIC ([9]; P. aeruginosa (MMX3026)): > 16 µg/mL
MIC ([9]; P. aeruginosa (MMX4700)): 16 µg/mL (≈ 30.4 µM)
MIC (E. cloaceae (ATCC 13047)): > 64 µg/mL
MIC [10]: 1 µg/mL (≈ 1.9 µM)
MIC of Compound (μg/ml) in the presence of PMBN (128 μg/ml) ([11]; E. coli (BAA200)): ≦0.008 μg/ml
MIC of Compound (μg/ml) in the presence of PMBN (128 μg/ml) ([11]; E. coli (MMX 1312)): ≦0.008 μg/ml
MIC of Compound (μg/ml) in the presence of PMBN (128 μg/ml) ([11]; E. coli (MMX 2232)): ≦0.008 μg/ml
MIC of Compound (μg/ml) in the presence of PMBN (128 μg/ml) ([11]; E. coli (MMX 5743)): ≦0.008 μg/ml
MIC of Compound (μg/ml) in the presence of PMBN (128 μg/ml) ([11]; E. coli (MMX 5771)): ≦0.12 μg/ml
MIC of Compound (μg/ml) in the presence of PMBN (128 μg/ml) ([11]; E. coli (MMX 6413)): ≦0.12 μg/ml
MIC of Compound (μg/ml) in the presence of PMBN (128 μg/ml) ([11]; E. coli (NCTC11954)): ≦0.008 μg/ml
MIC of Compound (μg/ml) in the presence of PMBN (128 μg/ml) ([11]; E. coli (NCTC13351)): ≦0.12 μg/ml
MIC of Compound (μg/ml) in the presence of PMBN (128 μg/ml) ([11]; E. coli (NCTC13352)): ≦0.008 μg/ml
MIC of Compound (μg/ml) in the presence of PMBN (128 μg/ml) ([11]; E. coli (NCTC13353)): ≦0.008 μg/ml
MIC of Compound (μg/ml) in the presence of PMBN (128 μg/ml) ([11]; E. coli (NCTC13400)): ≦0.008 μg/ml
MIC of Compound (μg/ml) in the presence of PMBN (128 μg/ml) ([11]; E. coli (NCTC13441)): ≦0.12 μg/ml
MIC of Compound (μg/ml) in the presence of PMBN (128 μg/ml) ([11]; E. coli (NCTC13450)): ≦0.12 μg/ml
MIC of Compound (μg/ml) in the presence of PMBN (128 μg/ml) ([11]; E. coli (NCTC13461)): ≦0.12 μg/ml
MIC of Compound (μg/ml) in the presence of PMBN (128 μg/ml) ([11]; E. coli (NCTC13462)): ≦0.008 μg/ml
